Structures can show the parent of a compound that is named as a salt.
System: isolated left atrium of male guineapigs
Assay: Antiarrhythmic action on the isolated guineapig atrium (drop in maximum rhythmicity)
Design: species or system guineapig (strain: Pirbright white)
Details: Cavia porcellus, Tyrode's solution pH 7.4, 32° C., read-out: Maximum rhythmicity (ED 50%): concentration which causes a 50% drop in the maximum rhythmicity
Procedure: The antiarrhythmic activity of the compounds according to the invention was determined on the isolated left atrium of male guineapigs (strain: Pirbright white, weight: 350 to 450 g).
Atria suspended in an organ bath (volume: 125 ml) with carbogen-saturated Tyrode's solution (pH 7.4, 32° C.) were pre-loaded with 1.0 g and subjected to square-wave pulses having a base rhythm of 1 Hz and twice the excitation threshold (rheobase: 0.2-1.4 V, chronaxia: 0.3-0.5 msec).
The frequency (Hz) up to which contraction follows each stimulus (maximum rhythmicity, MR) was determined, by automatically and continuously increasing the frequency, as a criterion of the antiarrhythmic activity. The concentration which causes a drop in the maximum rhythmicity of 50% (EC 50%) was calculated from the linear relationship between the logarithm of the concentration (mg/l) and the relative drop in the maximum rhythmicity (%).
(§1) The known antiarrhythmic drug propafenone [2-(2-hydroxy-3-propylamino-propoxy)-3-phenyl-propiophenone hydrochloride]was used as the comparative substance.

| Compound | EC50 |
| --- | --- |
| CC(CCO)NCC(O)COc1ccccc1C(=O)CCc1ccccc1 (stereo not drawn) [Example 1, 2-[2'-Hydroxy-3'-(4-hydroxybut-2-ylamino)-propoxy]-β-phenyl-propiophenone hydrochloride] | 1.9 µg/mL |
| COCC(C)NCC(O)COc1ccccc1C(=O)CCc1ccccc1 (stereo not drawn) [Example 2, 2-[2'-Hydroxy-3'-(3-methoxyprop-2-ylamino)-propoxy]-β-phenyl-propiophenone hydrochloride] | 0.874 µg/mL |
| O=C(CCc1ccccc1)c1ccccc1OCC(O)CNC1CC1 (stereo not drawn) [Example 3, 2-(2'-Hydroxy-3'-cyclopropylamino-propoxy)-β-phenylpropiophenone hydrochloride] | 1.51 µg/mL |
| C#CC(C)NCC(O)COc1ccccc1C(=O)CCc1ccccc1 (stereo not drawn) [Example 6, 2-[2'-Hydroxy-3'-(1-butyn-3-ylamino)-propoxy]-β-phenyl-propiophenone hydrochloride] | 1.71 µg/mL |
| C#CC(C)(C)NCC(O)COc1ccccc1C(=O)CCc1ccccc1 (stereo not drawn) [Example 7, 2-[2'-Hydroxy-3'-(3-methyl-1-butyn-3-ylamino)-propoxy]-β-phenyl-propiophenone hydrochloride] | 1.66 µg/mL |
| COCCNCC(O)COc1ccccc1C(=O)CCc1ccccc1 (stereo not drawn) [Example 9, 2-[2'-Hydroxy-3'-(2-methoxyethylamino)-propoxy]-β-phenyl-propiophenone hydrochloride] | 0.757 µg/mL |
| CSCC(C)NCC(O)COc1ccccc1C(=O)CCc1ccccc1 (stereo not drawn) [Example 10, 2-[2'-Hydroxy-3'-(3-thiomethoxyprop-2-ylamino)-propoxy]-β-phenyl-propiophenone hydrochloride] | 1.13 µg/mL |
| CC(CNCC(O)COc1ccccc1C(=O)CCc1ccccc1)c1ccccc1 (stereo not drawn) [Example 12, 2-[2'-Hydroxy-3'-(2-phenylpropylamino)-propoxy]-β-phenyl-propiophenone hydrochloride] | 1.25 µg/mL |
| COc1ccc(CCNCC(O)COc2ccccc2C(=O)CCc2ccccc2)cc1OC (stereo not drawn) [Example 14, 2-[2'-Hydroxy-3'-(2-(3,4-dimethoxyphenyl)-ethylamino)propoxy]-β-phenyl-propiophenone hydrochloride] | 2.17 µg/mL |
| COc1ccc(CCN(C)CC(O)COc2ccccc2C(=O)CCc2ccccc2)cc1OC (stereo not drawn) [Example 15, 2-[2'-Hydroxy-3'-[N-methyl-N-(2-(3,4-dimethoxyphenyl)ethylamino)]-propoxy]-β-phenyl-propiophenone hydrochloride] | 0.728 µg/mL |
| CN(C)CC(O)COc1ccccc1C(=O)CCc1ccccc1 (stereo not drawn) [Example 18, 2-[2'-Hydroxy-3'-(N,N-dimethylamino)-propoxy]-β-phenyl-propiophenone hydrochloride] | 1.3 µg/mL |
| O=C(CCc1ccccc1)c1ccccc1OCC(O)CN1CCC(c2ccccc2)C1 (stereo not drawn) [Example 22, 2-[2'-Hydroxy-3'-(3-phenyl-pyrrolidino)-propoxy]-β-phenyl-propiophenone hydrochloride] | 1.21 µg/mL |
| CCCNCC(O)COc1ccccc1C(=O)CCc1ccccc1OC (stereo not drawn) [Example 29, 2-(2'-Hydroxy-3'-n-propylamino-propoxy)-β-(2-methoxyphenyl)-propiophenone hydrochloride] | 1.71 µg/mL |
| CCCN(CCC)CC(O)COc1ccc(C)cc1C(=O)CCc1ccc(Cl)cc1 (stereo not drawn) [Example 46, 2-(2'-Hydroxy-3'-di-n-propylamino-propoxy)-5-methyl-β-(4-chlorophenyl)-propiophenone hydrochloride] | 0.778 µg/mL |
| CCCN(CCC)CC(O)COc1ccc(Cl)cc1C(=O)CCc1ccc(F)cc1 (stereo not drawn) [Example 47, 2-(2'-Hydroxy-3'-di-n-propylamino-propoxy)-5-chloro-β-(p-fluorophenyl)-propiophenone hydrochloride] | 1.45 µg/mL |
| CCCNCC(O)COc1ccc(C)cc1C(=O)CCc1ccc(OC)c(OC)c1 (stereo not drawn) [Example 48, 2-(2'-Hydroxy-3'-n-propylamino-propoxy)-5-methyl-β-(3,4-dimethoxyphenyl)-propiophenone hydrochloride] | 0.923 µg/mL |
| CC(C)N(CC(O)COc1ccccc1C(=O)CCc1ccc(N(C)C)cc1)C(C)C (stereo not drawn) [Example 64, 2-[2'-Hydroxy-3'-(N,N-diisopropylamino)-propoxy]-β-(4-dimethylaminophenyl)-propiophenone hydrochloride] | 1.36 µg/mL |
| CCCNCC(O)COc1ccccc1C(=O)CCc1ccccc1 (stereo not drawn) [Propafenone, 2-(2'-hydroxy-3'-n-propylamino-propoxy)-β-phenyl-propiophenone hydrochloride, reference compound] | 2.02 µg/mL |

System: aconitine arrhythmia in rats
Assay: Antiarrhythmic action on aconitine arrhythmia in rats
Format: in vivo, rat (strain: Sprague Dawley)
Details: Rattus norvegicus, iv, 1 h, intravenous administration (footnote 2), aconitine infused 60 minutes after substance, read-out: ED 50%: dose which causes a 50% extension in the period of aconitine infusion
Procedure: Moreover, the novel compounds were administered orally or intravenously to male rats (strain: Sprague Dawley, weight: 200-230 g) to determine the antiarrhythmic activity. 45 minutes later, the animals were anesthetized by intraperitoneal administration of 100 mg/kg of thiobutabarbital sodium. Aconitine served as the arrhythmogenic substance, and was infused intravenously at a dosage rate of 0.005 mg/kg/minute 60 minutes after administration of the substance. In untreated animals (n=52), arrhythmias appeared in the ECG after 2.74±0.07 minutes. These arrhythmias can be delayed by antiarrhythmic drugs, as a function of the dose.
The dose which extends the infusion period by 50% (ED 50%) was determined from the linear relationship between the logarithm of the dose (mg/kg) of the trial substance and the relative extension of the period of aconitine infusion (Δ%).
as §1

| Compound | ED50 |
| --- | --- |
| CCCNCC(O)COc1ccc(O)cc1C(=O)CCc1ccccc1 (stereo not drawn) [Example 71, 2-(2'-Hydroxy-3'-n-propylamino-propoxy)-5-hydroxy-β-phenyl-propiophenone hydrochloride] | 0.51 mg/kg |

Same assay, conditions: Rattus norvegicus, po, 1 h, peroral administration, aconitine infused 60 minutes after substance, read-out: ED 50%: dose which causes a 50% extension in the period of aconitine infusion

| Compound | ED50 |
| --- | --- |
| CC(CCO)NCC(O)COc1ccccc1C(=O)CCc1ccccc1 (stereo not drawn) [Example 1, 2-[2'-Hydroxy-3'-(4-hydroxybut-2-ylamino)-propoxy]-β-phenyl-propiophenone hydrochloride] | 15 mg/kg |
| COCC(C)NCC(O)COc1ccccc1C(=O)CCc1ccccc1 (stereo not drawn) [Example 2, 2-[2'-Hydroxy-3'-(3-methoxyprop-2-ylamino)-propoxy]-β-phenyl-propiophenone hydrochloride] | 46.4 mg/kg |
| O=C(CCc1ccccc1)c1ccccc1OCC(O)CNC1CC1 (stereo not drawn) [Example 3, 2-(2'-Hydroxy-3'-cyclopropylamino-propoxy)-β-phenylpropiophenone hydrochloride] | 38.2 mg/kg |
| O=C(CCc1ccccc1)c1ccccc1OCC(O)CNC1CCCCC1 (stereo not drawn) [Example 4, 2-(2'-Hydroxy-3'-cyclohexylamino-propoxy)-β-phenylpropiophenone hydrochloride] | 46.4 mg/kg |
| CC(C)(O)CCNCC(O)COc1ccccc1C(=O)CCc1ccccc1 (stereo not drawn) [Example 8, 2-[2'-Hydroxy-3'-(3-hydroxy-3-methyl-butylamino)-propoxy]-β-phenyl-propiophenone hydrochloride] | 21 mg/kg |
| COCCNCC(O)COc1ccccc1C(=O)CCc1ccccc1 (stereo not drawn) [Example 9, 2-[2'-Hydroxy-3'-(2-methoxyethylamino)-propoxy]-β-phenyl-propiophenone hydrochloride] | 27 mg/kg |
| CSCC(C)NCC(O)COc1ccccc1C(=O)CCc1ccccc1 (stereo not drawn) [Example 10, 2-[2'-Hydroxy-3'-(3-thiomethoxyprop-2-ylamino)-propoxy]-β-phenyl-propiophenone hydrochloride] | 46.4 mg/kg |
| CN(C)CCNCC(O)COc1ccccc1C(=O)CCc1ccccc1 (stereo not drawn) [Example 16, 2-[2'-Hydroxy-3'-(2-dimethylaminoethylamino)-propoxy]-β-phenyl-propiophenone bis-hydrochloride] | 29 mg/kg |
| CCCNCC(O)COc1ccccc1C(=O)CCc1ccc(OC)c(OC)c1 (stereo not drawn) [Example 36, 2-(2'-Hydroxy-3'-n-propylamino-propoxy)-β-(3,4-dimethoxyphenyl)-propiophenone hydrochloride] | 6.92 mg/kg |
| CCCNCC(O)COc1ccc(Cl)cc1C(=O)CCc1ccccc1 (stereo not drawn) [Example 37, 2-(2'-Hydroxy-3'-n-propylamino-propoxy)-5-chloro-β-phenyl-propiophenone hydrochloride] | 46.4 mg/kg |
| COCC(C)NCC(O)COc1ccc(Cl)cc1C(=O)CCc1ccccc1 (stereo not drawn) [Example 38, 2-[2'-Hydroxy-3'-(3-methoxy-prop-2-ylamino)-propoxy]-5-chloro-β-phenyl-propiophenone hydrochloride] | 21.5 mg/kg |
| O=C(CCc1ccccc1)c1cc(Cl)ccc1OCC(O)CN1CCCCC1 (stereo not drawn) [Example 40, 2-(2'-Hydroxy-3'-piperidino-propoxy)-5-chloro-β-phenyl-propiophenone] | 46.4 mg/kg |
| CC(C)NCC(O)COc1ccccc1C(=O)CCc1ccc(N(C)C)cc1 (stereo not drawn) [Example 56, 2-(2'-Hydroxy-3'-isopropylamino-propoxy)-β-(4-dimethylaminophenyl)-propiophenone hydrochloride] | 3.4 mg/kg |
| CCCNCC(O)COc1ccccc1C(=O)CCc1ccc(N(CC)CC)cc1 (stereo not drawn) [Example 61, 2-(2'-Hydroxy-3'-n-propylamino-propoxy)-β-(4-diethylaminophenyl)-propiophenone hydrochloride] | 1.9 mg/kg |
| CCCNCC(O)COc1ccc(Cl)cc1C(=O)CCc1ccc(N(C)C)cc1 (stereo not drawn) [Example 62, 2-(2'-Hydroxy-3'-n-propylamino-propoxy)-5-chloro-β-(4-dimethylaminophenyl)-propiophenone hydrochloride] | 21.5 mg/kg |
| CCCNCC(O)COc1ccc(C)cc1C(=O)CCc1ccc(N(C)C)cc1 (stereo not drawn) [Example 63, 2-(2'-Hydroxy-3'-n-propylamino-propoxy)-5-methyl-β-(4-dimethylaminophenyl)-propiophenone hydrochloride] | 3.03 mg/kg |
| CC(C)N(CC(O)COc1ccc(Cl)cc1C(=O)CCc1ccc(N(C)C)cc1)C(C)C (stereo not drawn) [Example 66, 2-[2'-Hydroxy-3'-(N,N-diisopropylamino)-propoxy]-5-chloro-β-(4-dimethylaminophenyl)-propiophenone hydrochloride] | 21.5 mg/kg |
| Cc1ccc(OCC(O)CN2CCN(C)CC2)c(C(=O)CCc2ccc(N(C)C)cc2)c1 (stereo not drawn) [Example 68, 2-[2'-Hydroxy-3'-(4-methyl-piperazin-1-yl)-propoxy]-5-methyl-β-(4-dimethylaminophenyl)-propiophenone hydrochloride] | 46.4 mg/kg |
| COCC(C)NCC(O)COc1ccc(C)cc1C(=O)CCc1ccc(N(C)C)cc1 (stereo not drawn) [Example 69, 2-[2'-Hydroxy-3'-(3-methoxy-prop-2-ylamino)-propoxy]-5-methyl-β-(4-dimethylaminophenyl)-propiophenone hydrochloride] | 31.6 mg/kg |

Same assay, conditions: peroral administration, aconitine infused 60 minutes after substance

| Compound | ED 50%: dose which causes a 50% extension in the period of aconitine infusion |
| --- | --- |
| 2-[2'-Hydroxy-3'-(2-hydroxyethylamino)-propoxy]-β-(dimethylaminophenyl)-propiophenone hydrogen oxalate [Example 59] | 21.5 mg/kg |

From patent publication US4540697A, “Aminopropanol derivatives of 2-hydroxy-β-phenyl-propiophenones, pharmaceutical compositions and use” (priority 1984, dated 1985)
